The source of these data is patent US7632918B2, “Semi-synthetic glycopeptides with antibiotic activity” (Novartis Vaccines and Diagnostics, Inc., priority 2005, dated 2009).

Experiment in all cases: MIC, broth microdilution in Meuller-Hinton broth (NCCLS)
One test relates to 560 E. faecalis (GRE). In kind it is cell-based, Enterococcus faecalis. The following applies: glycopeptide-resistant clinical isolate. In outline: (§1)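 Clinical strains, sensitive or resistant to natural glycopeptides, served as test organisms; the end point was the minimal inhibitory concentration, given in μg/ml.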
Another test relates to 559 E. faecalis (GSE). It counts as cell-based, Enterococcus faecalis. The following applies: glycopeptide-sensitive clinical isolate. Summed up:
as §1

Another test deals with 533 S. epidermidis. In kind it is cell-based, Staphylococus epidermidis. The following applies: clinical isolate. In outline: as §1
The test system of a further test is 3798 S. aureus (GISA). It counts as cell-based, Staphylococus aureus. The following applies: glycopeptides-intermediate clinical isolate. In outline: as §1
The test system of the next test is 3797 S. aureus (GISA). It counts as cell-based, Staphylococus aureus. The following applies: glycopeptides-intermediate clinical isolate. Summed up: as §1
A further test deals with 568 E. faecium (GSE). It counts as cell-based. The following applies: glycopeptide-sensitive clinical isolate. In outline: as §1
The subject of another test is 569 E. faecium (GRE). It counts as cell-based. The following applies: glycopeptide-resistant clinical isolate. In outline:
as §1

Another test concerns 602 S. haemolyticus. It counts as cell-based, Staphylococus haemolyticus. The following applies: clinical isolate. In outline:
as §1

Converted amounts (≈) assume the structure as drawn.

Regarding `CNC(CC(C)C)C(=O)NC1C(=O)NC(CC(N)=O)C(=O)NC2C(=O)NC3C(=O)NC(C(=O)NC(C(=O)O)c4cc(O)cc(O)c4-c4cc3ccc4O)C(O)c3ccc(c(Cl)c3)Oc3cc2cc(c3OC2OC(CO)C(O)C(O)C2OC2CC(C)(NC(=O)CNCc3ccc(C(F)(F)F)cc3)C(O)C(C)O2)Oc2ccc(cc2Cl)C1O` (centres unmarked) [Compound 290], the “MIC 560 E. faecalis (GRE)” value in the test on 560 E. faecalis (GRE) was greater than 64 µg/mL. In addition, in the test with 559 E. faecalis (GSE), the “MIC 559 E. faecalis (GSE)” value turned out to be 2 µg/mL (≈ 1.2 µM). Moreover, in the test with 533 S. epidermidis, the “MIC 533 S. epidermidis” value came out at 4 µg/mL (≈ 2.4 µM). Besides, the “MIC 3798 S. aureus (GISA)” value against 3798 S. aureus (GISA) came to 4 µg/mL (≈ 2.4 µM). The “MIC 3797 S. aureus (GISA)” value with 3797 S. aureus (GISA) amounted to 4 µg/mL (≈ 2.4 µM). Also, the “MIC 568 E. faecium (GSE)” value in the test on 568 E. faecium (GSE) is 4 µg/mL (≈ 2.4 µM). Besides, the “MIC 569 E. faecium (GRE)” value with 569 E. faecium (GRE) is greater than 64 µg/mL. For the same compound, the “MIC 602 S. haemolyticus” value with 602 S. haemolyticus came to 4 µg/mL (≈ 2.4 µM).
Regarding `CNC(CC(C)C)C(=O)NC1C(=O)NC(CC(N)=O)C(=O)NC2C(=O)NC3C(=O)NC(C(=O)NC(C(=O)O)c4cc(O)cc(O)c4-c4cc3ccc4O)C(O)c3ccc(c(Cl)c3)Oc3cc2cc(c3OC2OC(CO)C(O)C(O)C2OC2CC(C)(NC(=O)CNCc3ccc(F)cc3)C(O)C(C)O2)Oc2ccc(cc2Cl)C1O` (centres unmarked) [Compound 291], the “MIC 560 E. faecalis (GRE)” value in the test on 560 E. faecalis (GRE) was 8 µg/mL (≈ 4.96 µM). In the test on 559 E. faecalis (GSE), the “MIC 559 E. faecalis (GSE)” value was 1 µg/mL (≈ 0.619 µM). The “MIC 533 S. epidermidis” value against 533 S. epidermidis came to 4 µg/mL (≈ 2.48 µM). In the test with 3798 S. aureus (GISA), the “MIC 3798 S. aureus (GISA)” value was 4 µg/mL (≈ 2.48 µM). For the same compound, the “MIC 3797 S. aureus (GISA)” value against 3797 S. aureus (GISA) was found to be 4 µg/mL (≈ 2.48 µM). Also, in the test on 568 E. faecium (GSE), the “MIC 568 E. faecium (GSE)” value is 1 µg/mL (≈ 0.619 µM). The “MIC 569 E. faecium (GRE)” value in the test with 569 E. faecium (GRE) stood at 8 µg/mL (≈ 4.96 µM). In the test with 602 S. haemolyticus, the “MIC 602 S. haemolyticus” value amounted to 4 µg/mL (≈ 2.48 µM).
For `CNC(CC(C)C)C(=O)NC1C(=O)NC(CC(N)=O)C(=O)NC2C(=O)NC3C(=O)NC(C(=O)NC(C(=O)O)c4cc(O)cc(O)c4-c4cc3ccc4O)C(OC3CC(C)(N)C(O)C(C)O3)c3ccc(cc3)Oc3cc2cc(c3OC2OC(CO)C(O)C(O)C2OC2CC(C)(NC(=O)CNCc3ccc4c(c3)Cc3ccccc3-4)C(O)C(C)O2)Oc2ccc(cc2Cl)C1O` (centres unmarked) [Compound 292], the “MIC 560 E. faecalis (GRE)” value with 560 E. faecalis (GRE) worked out at 32 µg/mL (≈ 17.8 µM). In addition, the “MIC 559 E. faecalis (GSE)” value against 559 E. faecalis (GSE) stood at 2 µg/mL (≈ 1.12 µM). For the same compound, in the test with 533 S. epidermidis, the “MIC 533 S. epidermidis” value came out at 4 µg/mL (≈ 2.23 µM). Moreover, the “MIC 3798 S. aureus (GISA)” value in the test on 3798 S. aureus (GISA) was 8 µg/mL (≈ 4.46 µM). Besides, in the test on 3797 S. aureus (GISA), the “MIC 3797 S. aureus (GISA)” value came out at 8 µg/mL (≈ 4.46 µM). The “MIC 568 E. faecium (GSE)” value in the test with 568 E. faecium (GSE) came out at 2 µg/mL (≈ 1.12 µM). Moreover, in the test on 569 E. faecium (GRE), the “MIC 569 E. faecium (GRE)” value is 32 µg/mL (≈ 17.8 µM). Besides, the “MIC 602 S. haemolyticus” value against 602 S. haemolyticus turned out to be 4 µg/mL (≈ 2.23 µM).
For `CNC(CC(C)C)C(=O)NC1C(=O)NC(CC(N)=O)C(=O)NC2C(=O)NC3C(=O)NC(C(=O)NC(C(=O)O)c4cc(O)cc(O)c4-c4cc3ccc4O)C(OC3CC(C)(N)C(O)C(C)O3)c3ccc(cc3)Oc3cc2cc(c3OC2OC(CO)C(O)C(O)C2OC2CC(C)(NC(=O)CNCc3ccc(F)cc3)C(O)C(C)O2)Oc2ccc(cc2Cl)C1O` (centres unmarked) [Compound 293], in the test with 560 E. faecalis (GRE), the “MIC 560 E. faecalis (GRE)” value worked out at 16 µg/mL (≈ 9.29 µM). Besides, the “MIC 559 E. faecalis (GSE)” value against 559 E. faecalis (GSE) was found to be 4 µg/mL (≈ 2.32 µM). For the same compound, the “MIC 533 S. epidermidis” value in the test on 533 S. epidermidis was 4 µg/mL (≈ 2.32 µM). Moreover, the “MIC 3798 S. aureus (GISA)” value with 3798 S. aureus (GISA) worked out at 8 µg/mL (≈ 4.64 µM). In addition, the “MIC 3797 S. aureus (GISA)” value with 3797 S. aureus (GISA) amounted to 8 µg/mL (≈ 4.64 µM). In the test with 568 E. faecium (GSE), the “MIC 568 E. faecium (GSE)” value worked out at 4 µg/mL (≈ 2.32 µM). The “MIC 569 E. faecium (GRE)” value against 569 E. faecium (GRE) came out at 16 µg/mL (≈ 9.29 µM). In addition, in the test with 602 S. haemolyticus, the “MIC 602 S. haemolyticus” value came to 4 µg/mL (≈ 2.32 µM).
Consider `CNC(CC(C)C)C(=O)NC1C(=O)NC(CC(N)=O)C(=O)NC2C(=O)NC3C(=O)NC(C(=O)NC(C(=O)O)c4cc(O)cc(O)c4-c4cc3ccc4O)C(OC3CC(C)(N)C(O)C(C)O3)c3ccc(cc3)Oc3cc2cc(c3OC2OC(CO)C(O)C(O)C2OC2CC(C)(NC(=O)CNCc3ccc(C(F)(F)F)cc3)C(O)C(C)O2)Oc2ccc(cc2Cl)C1O` (centres unmarked) [Compound 294], for which the “MIC 560 E. faecalis (GRE)” value against 560 E. faecalis (GRE) was greater than 64 µg/mL. Moreover, the “MIC 559 E. faecalis (GSE)” value with 559 E. faecalis (GSE) was determined as 0.5 µg/mL (≈ 0.282 µM). Also, the “MIC 533 S. epidermidis” value in the test on 533 S. epidermidis was 1 µg/mL (≈ 0.564 µM). Moreover, the “MIC 3798 S. aureus (GISA)” value with 3798 S. aureus (GISA) amounted to 4 µg/mL (≈ 2.26 µM). In the test with 3797 S. aureus (GISA), the “MIC 3797 S. aureus (GISA)” value was 4 µg/mL (≈ 2.26 µM). Besides, the “MIC 568 E. faecium (GSE)” value against 568 E. faecium (GSE) was 0.5 µg/mL (≈ 0.282 µM). Moreover, the “MIC 569 E. faecium (GRE)” value with 569 E. faecium (GRE) was greater than 64 µg/mL. The “MIC 602 S. haemolyticus” value in the test on 602 S. haemolyticus is 1 µg/mL (≈ 0.564 µM).
On to `CNC(CC(C)C)C(=O)NC1C(=O)NC(CC(N)=O)C(=O)NC2C(=O)NC3C(=O)NC(C(=O)NC(C(=O)O)c4cc(O)cc(O)c4-c4cc3ccc4O)C(O)c3ccc(c(Cl)c3)Oc3cc2cc(c3OC2OC(CO)C(O)C(O)C2OC2CC(C)(NC(=O)CNc3ccc4ccccc4n3)C(O)C(C)O2)Oc2ccc(cc2Cl)C1O` (centres unmarked) [Compound 298], for which the “MIC 560 E. faecalis (GRE)” value against 560 E. faecalis (GRE) was determined as 64 µg/mL (≈ 39.2 µM). Also, the “MIC 559 E. faecalis (GSE)” value with 559 E. faecalis (GSE) was 2 µg/mL (≈ 1.22 µM). In addition, the “MIC 533 S. epidermidis” value in the test on 533 S. epidermidis was determined as 8 µg/mL (≈ 4.9 µM). Moreover, the “MIC 3798 S. aureus (GISA)” value against 3798 S. aureus (GISA) stood at 8 µg/mL (≈ 4.9 µM). Besides, the “MIC 3797 S. aureus (GISA)” value against 3797 S. aureus (GISA) is 8 µg/mL (≈ 4.9 µM). Further, in the test on 568 E. faecium (GSE), the “MIC 568 E. faecium (GSE)” value worked out at 4 µg/mL (≈ 2.45 µM). Further, in the test with 569 E. faecium (GRE), the “MIC 569 E. faecium (GRE)” value was greater than 64 µg/mL. The “MIC 602 S. haemolyticus” value in the test with 602 S. haemolyticus was determined as 8 µg/mL (≈ 4.9 µM).
Consider “N′-stilbenylHNCH2CO eremomycin [Compound 192]”, for which the “MIC 560 E. faecalis (GRE)” value with 560 E. faecalis (GRE) came out at 8 µg/mL. In addition, the “MIC 559 E. faecalis (GSE)” value against 559 E. faecalis (GSE) came out at 1 µg/mL. Also, in the test with 533 S. epidermidis, the “MIC 533 S. epidermidis” value is 0.5 µg/mL. For the same compound, the “MIC 3798 S. aureus (GISA)” value against 3798 S. aureus (GISA) stood at 8 µg/mL. The “MIC 3797 S. aureus (GISA)” value in the test with 3797 S. aureus (GISA) worked out at 8 µg/mL. Also, the “MIC 568 E. faecium (GSE)” value against 568 E. faecium (GSE) worked out at 0.5 µg/mL. Moreover, the “MIC 569 E. faecium (GRE)” value with 569 E. faecium (GRE) worked out at 4 µg/mL. Moreover, in the test on 602 S. haemolyticus, the “MIC 602 S. haemolyticus” value amounted to 0.5 µg/mL.
